Measured values taken from US11771692B2, “N-hydroxyethyl didehydroazapodophyllotoxins as GBP1 inhibitors and methods of overcoming treatment resistance in cancer” (The Board of Trustees of the Leland Stanford Junior …, priority 2018, dated 2023).
“Also recorded” adds a separate entry of the source. Read-outs that look alike come from different tables or passages of the source.

Tests used:
HCT116 = assay: MTT cytotoxicity assay, HCT116; format: cell-based; settings: Homo sapiens, HCT-116, Colorectal
Description: (§1) It was observed that SU093 was highly cytotoxic for all cell lines tested with IC50 values in the nanomolar range.

SSC-90 = assay: MTT cytotoxicity assay, SSC-90; format: cell-based; settings: Head and Neck, SSC-90, MTT assay
Description: as §1

MCF7 = assay: MTT cytotoxicity assay, MCF7; format: cell-based; settings: Homo sapiens, Breast
Description: as §1

SKOV3 = assay: MTT cytotoxicity assay, SKOV3; format: cell-based; settings: Homo sapiens, SK-OV-3; SKOV3 ovarian cancer cell line
Description: (§2) FIG. 3, panels A-E. FIG. 3, panel A illustrates the effects of SU093 on survival of human normal HEK293 cell line and ovarian cancer cell lines OVCAR8 & SKOV3 cells via MTT assay. FIG. 3, panel B illustrates the effect of SU093 on GBP1 and PIM1 expression in OVCAR8 cells. […] FIG. 3, panel D illustrates quantification of overexpression and knockdown of GBP1 gene in stably transfected OVCAR8 cells. FIG. 3, panel E illustrates cytotoxicity of SU093 as evaluated in GBP1-OV, GBP1-WT and GBP1-KD OVCAR8 via MTT assay.
(§3) Furthermore, OVCAR8 cells with overexpressed (OV) and knockdown (KD) of GBP1 gene were created (FIG. 3, panel D) and cell viability experiments were performed on GBP1-WT (wild-type), GBP1-OV and GBP1-KD OVCAR8 cells at different doses of SU093.

GBP1 and PIM1 = assay: Immunoblotting of GBP1 and PIM1 expression in OVCAR8 cells; format: cell-based
OVCAR8 cells = assay: Colony formation (clonogenic) assay in OVCAR8 cells; format: cell-based
[1] = test system: GBP1-OV and GBP1-KD OVCAR8 cells; assay: MTT cell viability in GBP1-WT, GBP1-OV and GBP1-KD OVCAR8 cells; format: cell-based
Description: as §2, §3

GBP1 [2] = assay: Confocal microscopy immunostaining of GBP1 and β-tubulin in OVCAR8 cells; format: cell-based; settings: OVCAR8, 1 nM SU093 for 6 h
OVCAR8-PRes cells = assay: Growth inhibition of paclitaxel-resistant OVCAR8-PRes cells; format: cell-based
Description: The cytotoxic effect of SU093 and paclitaxel combination treatment was also studied (FIG. 5, panel E).

SCC-90 cells [3] = assay: MTT cell viability in SCC-90 cells with GBP1 overexpression and knockdown; format: cell-based; settings: SCC-90, SU093 0.5-1000 nM, 48 h
Description: (§4) The potential for GBP1 inhibition and radiosensitzation in head and neck cancer cells was also investigated.

GBP1 [4] = assay: Confocal microscopy of GBP1 and β-tubulin in SCC-90 cells; format: cell-based; settings: SCC-90, SU093 50 nM, 6 h
Description: as §4

SCC-90 cells [5] = assay: Clonogenic radiosensitization assay in SCC-90 cells; format: cell-based; settings: SCC-90, SU093 50 nM then radiation
Description: as §4

[6] = Maximum tolerable dose study, 14 days IP; format: in vivo, mice
Protocol: FIG. 7, panel A illustrates in vivo PK studies, C57BL/6 mice. Drug concentration in plasma was quantified at different time points using LCMS after a single IP injection of SU093. FIG. 7, panel B illustrates the drug concentration in harvested ovaries and liver of C57BL/6 mice after 14 days of administration with SU093 (100 mg/kg) by daily IP injection.
To determine the maximum tolerable dose of an exemplary GBP1 inhibitor, SU093 was administered to C57BL6 female mice (n=10) intraperitoneally at 100 mg/kg for 14 days. […] At the end of the 14th day, mice were sacrificed and organs were harvested.

ID-8 tumor xenograft = assay: Ovarian ID-8 tumor xenograft in C57BL6 mice; format: in vivo
Description: An immunocompetent syngeneic mouse model was used to evaluate in vivo antitumor effect of SU093 and SU056 (also referred to herein as Compound (I)) for ovarian cancer. C57BL6 female mice (n=5/group) were subcutaneously injected in the right flank with 5×10^6 ID-8 cells mixed with matrigel. From the day following xenograft implantation, mice were monitored regularly for tumor growth and once the tumors reached approximately 100 mm^3, the mice were randomly divided into three groups and respective treatments were given.
Group I (vehicle control): 100 μl of 10% PEG300 (w/v) in saline;
Group II: mice treated with SU093 (20 mg/kg); and
Group III: mice treated with SU056 (20 mg/kg).
Doses were administered intraperitoneally (IP) for 7 days/week for 42 days and the mice were sacrificed on day 43. Tumor sizes were measured twice weekly using digital caliper and tumor volume was calculated by the formula: 0.5236 L1 (L2)^2, where L1 is long diameter, and L2 is short diameter.

SCC-90 tumor xenograft = assay: Head and neck SCC-90 tumor xenograft in nude mice; format: in vivo; settings: SCC-90, nude mice
Protocol: An immunodeficient nude mice model was also used to study the in vivo potential of SU093 and SU056 for head and neck cancer. Nude mice (n=3/group) were subcutaneously injected in the right flank with 5×10^6 SCC-90 cells mixed with matrigel and observed regularly until the tumor size reached about 200 mm^3. The treatment regime with drugs including dose, formulation and route of delivery was similar to ovarian cancer study discussed above. Doses of SU093 and SU056 were administered daily until 35 days and mice were sacrificed thereafter. […] At the end of 35 days, calculated tumor volume/mouse was 860.33±21.78 mm^3, 694.67±14.64 mm^3, and 435.00±10.81 mm^3 for control, SU093 and SU056 treatment groups, respectively. This equates to a 20% and 50% reduction in tumor volume for SU093 and SU056 treatment groups, respectively. A decrease in tumor weight of about 21% (P value not significant) and 54% (P<0.002) was also observed for the SU093 and SU56 treatment groups, respectively.

[7] = ID-8, 20 mg/kg IP daily, 42 days, vs control

## COc1ccc2c(c1)N(CCO)C1=C(C(=O)OC1)C2c1ccccc1 (stereo not shown) [SU093]
HCT116
  IC50: 1.24 nM
SSC-90
  IC50: 3.23 nM
MCF7
  IC50: 6.23 nM
SKOV3
  IC50: 2.68 nM
GBP1 and PIM1
  GBP1 and PIM1 expression: inhibits GBP1 and PIM1 expressions in a dose-dependent manner
OVCAR8 cells
  colony formation / clonogenic potential: dose-dependent inhibition of clonogenic potential; also recorded: dose-dependent inhibition of colony formation
[1]; GBP1-KD OVCAR8 cells
  cytotoxicity compared to GBP1-WT: enhanced cytotoxicity
[1]; GBP1-OV OVCAR8 cells
  cytotoxicity compared to GBP1-WT: reduced cytotoxicity
GBP1 [2]
  GBP1 nuclear translocation and tubulin expression: inhibits the nuclear translocation of GBP1 protein and reduces the tubulin expression; also recorded: blocking its nuclear translocation and reducing tubulin expression
OVCAR8-PRes cells; 15 nM SU093, read-out: inhibition in the cell growth
  inhibition at 0.015 µM: 50%
OVCAR8-PRes cells; SU093 (15 nM) and paclitaxel (2 μM), read-out: growth inhibition, combination treatment
  inhibition at 0.015 µM: 80%
SCC-90 cells [3]
  cytotoxic effect in GBP1 OV and KD cells: GBP1 dependent cytotoxic effect
GBP1 [4]
  GBP1 nuclear translocation and β-tubulin expression: inhibits the nuclear translocation of GBP1 protein and reduces the tubulin expression; also recorded: blocking its nuclear translocation and reducing β-tubulin expression
SCC-90 cells [5]
  radiation sensitizing effect, clonogenic assay: radiosensitization effect; also recorded: significant radiation sensitizing effect
[6]; 100 mg/kg for 14 days
  CHEM-22 panel analysis: only acute liver toxicity
[6]; C57BL6 female mice, 100 mg/kg IP, 14 days
  weight loss or sign of toxicity: no significant weight loss or sign of toxicity
[6]; female, C57BL/6, mouse, ovaries, intraperitoneal, 100 mg/kg daily IP, after 14 days, LCMS, read-out: concentration in the target organ (ovaries)
  concentration at 14 days: 3730 ng/mL
ID-8 tumor xenograft; 20 mg/kg IP daily, 42 days
  gross sign of toxicity (body weight and diet consumption): did not show any gross sign of toxicity
ID-8 tumor xenograft; ELISA, end of 42 days, vs control
  liver toxicity parameters (AST, ALT, Alkaline phosphatase): No significant difference
ID-8 tumor xenograft; [7]
  reduction in tumor volume: 37.5%
  tumor weight decreased: 39.65%
ID-8 tumor xenograft; ID-8, 20 mg/kg IP daily, end of 6 weeks
  tumor volume/mouse: 318.81±26.09 mm^3
SCC-90 tumor xenograft; 20 mg/kg IP daily, end of 35 days
  tumor volume/mouse: 694.67±14.64 mm^3
SCC-90 tumor xenograft; 35 days, vs control
  decrease in tumor weight: about 21%
  reduction in tumor volume: 20%
